Source: ChEMBL document CHEMBL1201862, “PubChem BioAssay data set” (2004)
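Briefly, cells in 96-well plates were exposed to five compound concentrations for 48 h, and endpoints were estimated by linear interpolation. GI50: concentration for 50% inhibition of growth.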 Activity calls are given as the source filed them. No stated cut-off is given here; in the data, active = GI50 up to about 1.1 µM and inactive = higher.

Key:
Test in all cases: DTP human tumour cell line panel, 48 h
HOP-18 = test system: HOP-18
DLD-1 = test system: DLD-1
KM-20L2 = test system: KM-20L2
SNB-78 = test system: SNB-78
M19-MEL = test system: M19-MEL
LXFL 529 = test system: LXFL 529
786-0 = test system: 786-0
MDA-N = test system: MDA-N
RXF 631 = test system: RXF 631

Nc1ccn(C2OC(CO)C(O)C2O)c(=O)c1 (stereo not given)
GI50 (HOP-18): 295 µM (inactive)
GI50 (DLD-1): 513 µM (inactive)
GI50 (KM-20L2): 566 µM (inactive)
GI50 (SNB-78): > 625 µM (inactive)

O=C(O)C(Br)Cc1ccc2c(c1)OCO2 (stereo not given)
GI50 (M19-MEL): 69.2 µM (inactive)
GI50 (DLD-1): > 100 µM (inactive)
GI50 (KM-20L2): > 100 µM (inactive)
GI50 (LXFL 529): > 100 µM (inactive)
GI50 (SNB-78): > 100 µM (inactive)

C/C(N)=N/OCc1nc(C)no1
GI50 (786-0): > 100 µM (inactive)
GI50 (MDA-N): > 100 µM (inactive)

CC(=N/NC(=S)Nc1c(C)n(C)n(-c2ccccc2)c1=O)/C(C)=N\NC(=S)Nc1c(C)n(C)n(-c2ccccc2)c1=O
GI50 (786-0): > 100 µM (inactive)

CC1=Nc2nc(Cl)cn2C(=O)C1(Cl)Cl
GI50 (MDA-N): > 10 µM (inactive)

COc1ccc(-c2c3c(nc4[nH]c(=S)[nH]c(=S)c24)CCCC3)cc1OC
GI50 (MDA-N): 34.3 µM (inactive)

O=C(O)c1c[nH]c2c(=O)[nH]cnc12
GI50 (M19-MEL): > 100 µM (inactive)
GI50 (HOP-18): > 100 µM (inactive)
GI50 (RXF 631): > 100 µM (inactive)
GI50 (DLD-1): > 100 µM (inactive)
GI50 (786-0): > 100 µM (inactive)
GI50 (LXFL 529): > 100 µM (inactive)
GI50 (SNB-78): > 100 µM (inactive)

COc1ccc(C(=C2C=CC=C2)c2ccc(OC)cc2)cc1
GI50 (MDA-N): 37 µM (inactive)

CN(C)/N=C(/CC(O)(C(F)(F)F)C(F)(F)F)c1ccc([N+](=O)[O-])cc1
GI50 (786-0): > 100 µM (inactive)
GI50 (MDA-N): > 100 µM (inactive)

BrC(/C=N/Nc1nnc(-c2ccccc2)c(-c2ccccc2)n1)C(Br)c1ccccc1 (stereo not given)
GI50 (M19-MEL): 36.1 µM (inactive)
GI50 (RXF 631): 51.4 µM (inactive)
GI50 (DLD-1): 23.8 µM (inactive)
GI50 (KM-20L2): 39.8 µM (inactive)
GI50 (786-0): 32 µM (inactive)
GI50 (SNB-78): 17.7 µM (inactive)

COc1c2c(c3ccccc3c1O)C1C=CC2C1 (stereo not given)
GI50 (M19-MEL): 2.32 µM (inactive)
GI50 (HOP-18): 15.1 µM (inactive)
GI50 (DLD-1): 13.3 µM (inactive)
GI50 (KM-20L2): 22.3 µM (inactive)
GI50 (LXFL 529): 3.82 µM (inactive)

C[C@H](N)C(=O)N[C@@H]1[C@H]2C(=C(O)C[C@@H](O)[C@@H]2O)C(=O)O[C@@H]1C
GI50 (M19-MEL): > 100 µM (inactive)
GI50 (HOP-18): 76.9 µM (inactive)
GI50 (DLD-1): > 100 µM (inactive)
GI50 (KM-20L2): > 100 µM (inactive)

Oc1[nH]c(Nc2cccc(Br)c2)nc2ncnc1-2
GI50 (786-0): > 100 µM (inactive)
GI50 (MDA-N): > 100 µM (inactive)

COc1cc(CNc2nc3c(NC(C)=O)cc(C(F)(F)F)cc3nc2-c2ccccc2)cc(OC)c1OC
GI50 (M19-MEL): > 100 µM (inactive)
GI50 (DLD-1): > 100 µM (inactive)
GI50 (KM-20L2): > 100 µM (inactive)
GI50 (LXFL 529): > 100 µM (inactive)

CC[N+]1(C)CCC(O)(c2ccccc2)C(C(=O)c2ccccc2)C1 (stereo not given)
GI50 (M19-MEL): 18.4 µM (inactive)
GI50 (HOP-18): 13.7 µM (inactive)
GI50 (DLD-1): 7.93 µM (inactive)
GI50 (KM-20L2): 19.5 µM (inactive)
GI50 (786-0): 5.89 µM (inactive)
GI50 (LXFL 529): 10 µM (inactive)

COc1ccc(C2=NN(C(=O)c3ccc(Cl)cc3)C(O)(c3cc(F)c(Cl)cc3Cl)C2)cc1 (stereo not given)
GI50 (786-0): > 100 µM (inactive)
GI50 (MDA-N): 22.4 µM (inactive)

CCOC(=O)C1(C(C)=O)OC(=O)c2cnccc21 (stereo not given)
GI50 (786-0): > 100 µM (inactive)
GI50 (MDA-N): > 100 µM (inactive)

COC1=C(C)C(=O)C2=C(C1=O)[C@@H]1[C@@H]3Cc4c(OC(=O)CO)c(C)c(OC)c(O)c4[C@H](CNC(=O)C(C)=O)N3[C@@H](C#N)[C@H](C2)N1C
GI50 (M19-MEL): < 0.0171 µM (active)
GI50 (HOP-18): 0.0382 µM (active)
GI50 (DLD-1): 0.0115 µM (active)
GI50 (KM-20L2): 0.0466 µM (active)
GI50 (SNB-78): < 0.013 µM (active)

COC1=CC(C2c3cc4c(cc3[C@@H](Nc3ccc([N+](=O)[O-])cc3)C3COC(=O)[C@H]23)OCO4)=CC(=O)C1=O (stereo not given in full)
GI50 (M19-MEL): 6.4 µM (inactive)
GI50 (HOP-18): 53.6 µM (inactive)
GI50 (RXF 631): 2.29 µM (inactive)
GI50 (DLD-1): 14 µM (inactive)
GI50 (KM-20L2): 9.1 µM (inactive)
GI50 (786-0): 1.83 µM (inactive)
GI50 (LXFL 529): 16.4 µM (inactive)
GI50 (SNB-78): 28 µM (inactive)

C#CCNC(=O)CCC(N)C(=O)O (stereo not given)
GI50 (M19-MEL): > 100 µM (inactive)
GI50 (HOP-18): > 100 µM (inactive)
GI50 (DLD-1): > 100 µM (inactive)
GI50 (KM-20L2): > 100 µM (inactive)
GI50 (SNB-78): > 100 µM (inactive)

COc1ccc([C@@H]2ON(C)[C@H]3CN(C)C(=O)[C@@H]23)cc1
GI50 (MDA-N): > 100 µM (inactive)

CC12CCC(C(=O)OC1=O)C(C)(C)O2 (stereo not given)
GI50 (MDA-N): > 100 µM (inactive)
